Measurements reported in ChEMBL document CHEMBL1201862, “PubChem BioAssay data set” (2004).
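These data come from cells grown in 96-well plates and exposed to compound for 48 hours at five concentrations. At the GI50, growth is halved.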 The source made the active and inactive calls. Cut-off read from the data, not from the text of the source: active = GI50 up to about 1.1 µM and inactive = higher.

Key:
Assay in all cases: DTP human tumour cell line panel, 48 h
[1] = tested on: A549
[2] = tested on: DLD-1
[3] = tested on: HCT-116
[4] = tested on: HOP-62
[5] = tested on: HOP-92
[6] = tested on: HT-29
[7] = tested on: K562
[8] = tested on: LOX IMVI
[9] = tested on: M19-MEL
[10] = tested on: NCI-H226
[11] = tested on: NCI-H522
[12] = tested on: RXF 393
[13] = tested on: SK-MEL-28
[14] = tested on: SN12C
[15] = tested on: SW-620
[16] = tested on: UO-31
[17] = tested on: DMS-273
[18] = tested on: SF-268
[19] = tested on: PC-3
[20] = tested on: T47D

Measured: GI50

COC(=O)Cc1nn2c(nc1=O)sc1ccc3ccccc3c12
inactive: [1] > 100 µM | [2] > 100 µM | [3] > 100 µM | [4] 72.1 µM | [5] 63.8 µM | [6] > 100 µM | [7] > 100 µM | [8] 67.3 µM | [9] > 100 µM | [10] > 100 µM | [11] 37.2 µM | [12] 50.7 µM | [13] > 100 µM | [14] > 100 µM | [15] > 100 µM | [16] > 100 µM

C[C@]12CC[C@H](OC(=O)Nc3ccccc3)CC1=CC[C@@H]1C2CC[C@]2(C)/C(=N/OC(=O)Nc3ccccc3)CCC12 (stereo partly drawn)
inactive: [1] 7.85 µM | [17] 37.3 µM | [3] 4.18 µM | [5] 20.1 µM | [6] 2.88 µM | [7] 2.21 µM | [8] 5.32 µM | [9] > 100 µM | [18] 7.94 µM | [14] 1.79 µM | [15] > 100 µM | [16] 1.92 µM

O=C1/C(=C/c2ccc(O)c(O)c2)CC/C1=C\c1ccc(O)c(O)c1
inactive: [1] 15.7 µM | [3] 3.58 µM | [4] 7.11 µM | [5] 4.17 µM | [6] 18.5 µM | [7] 3.24 µM | [8] 6.67 µM | [10] 7.46 µM | [11] 2.01 µM | [19] 11.8 µM | [12] 3.25 µM | [18] 5.52 µM | [13] 14.2 µM | [14] 7.29 µM | [15] 14 µM | [20] 4.66 µM | [16] 2.29 µM

O=C1C=CC2(C=C1)C[C@H](NC(=O)C(F)(F)F)C(=O)O2
inactive: [1] > 100 µM | [2] 22.9 µM | [3] 58.9 µM | [4] > 100 µM | [6] 79.6 µM | [7] 20.4 µM | [8] 22.3 µM | [9] 23.6 µM | [10] > 100 µM | [11] 17.3 µM | [12] 27.5 µM | [18] 37.9 µM | [13] 18.5 µM | [14] 50 µM | [16] > 100 µM

CC1(C)[C@@H]2CC[C@@]1(C)CN(CCC[N+](C)(C)C)C2
inactive: [1] > 100 µM | [3] > 100 µM | [4] > 100 µM | [5] > 100 µM | [6] > 100 µM | [7] > 100 µM | [8] > 100 µM | [10] > 100 µM | [11] > 100 µM | [19] > 100 µM | [12] > 100 µM | [18] > 100 µM | [13] > 100 µM | [14] > 100 µM | [15] > 100 µM | [20] > 100 µM | [16] > 100 µM

C=C=C(C(=O)OC)[S+]([O-])c1ccccc1[N+](=O)[O-] (stereo not drawn)
inactive: [1] > 100 µM | [17] > 100 µM | [3] 89.9 µM | [4] > 100 µM | [6] > 100 µM | [7] 59.2 µM | [9] > 100 µM | [10] > 100 µM | [11] 22.3 µM | [12] > 100 µM | [18] > 100 µM | [14] > 100 µM | [15] 99.5 µM | [16] > 100 µM

Cn1c(=O)c2c(nc(Nc3ccc(Cl)cc3)n3c(=O)n(-c4ccccc4)c(=O)n23)n(C)c1=O
inactive: [1] > 100 µM | [3] > 100 µM | [4] > 100 µM | [5] > 100 µM | [6] > 100 µM | [7] > 100 µM | [8] > 100 µM | [10] > 100 µM | [11] > 100 µM | [19] > 100 µM | [12] > 100 µM | [18] > 100 µM | [13] > 100 µM | [14] > 100 µM | [15] > 100 µM | [20] > 100 µM | [16] > 100 µM

COc1ccc(/C=C/C(=O)Oc2cc(O)cc(O)c2)cc1
inactive: [1] 34.8 µM | [3] 14.3 µM | [4] 17.3 µM | [5] 93.1 µM | [6] 29.4 µM | [7] 22.5 µM | [8] 20.1 µM | [10] > 100 µM | [11] 24.4 µM | [19] 43.6 µM | [12] 72.4 µM | [18] 26.2 µM | [13] > 100 µM | [14] 36.4 µM | [15] 41.1 µM | [20] 43.5 µM | [16] 37.6 µM

CCCCCCCCC[C@@H]1C[C@@H]2CCC3C(C(=O)OC)=C(C)N=C(N1)N32 (stereo partly drawn)
inactive: [1] 12.3 µM | [3] 4.25 µM | [4] 6.17 µM | [5] 10 µM | [6] 4.25 µM | [7] 5.25 µM | [8] 9.86 µM | [10] 6.98 µM | [11] 2.96 µM | [19] 3.64 µM | [12] 2.64 µM | [18] 5.05 µM | [13] 21 µM | [14] 14.6 µM | [15] 15.6 µM | [20] 10.6 µM | [16] 15.3 µM

C[P+](c1ccccc1)(c1ccc(Cl)cc1)c1ccc(Cl)cc1
inactive: [1] 32.4 µM | [3] 6.93 µM | [4] 19.5 µM | [5] 10.3 µM | [6] 4.44 µM | [7] 11.2 µM | [8] 11.1 µM | [10] 24.3 µM | [11] 12.9 µM | [19] 20.2 µM | [12] 46.2 µM | [18] 38.6 µM | [13] 10 µM | [14] 15.6 µM | [15] 18.5 µM | [20] 7.6 µM | [16] 38 µM

CC(=O)OC[C@H]1O[C@@H](O[C@H]2[C@H](OC(C)=O)C=CO[C@@H]2COC(C)=O)C(OC(C)=O)[C@H]2OC(C)(C)O[C@H]21 (stereo partly drawn)
inactive: [1] > 100 µM | [3] > 100 µM | [4] > 100 µM | [5] 52.8 µM | [6] > 100 µM | [7] > 100 µM | [8] > 100 µM | [10] > 100 µM | [11] 17.1 µM | [19] > 100 µM | [12] 2.43 µM | [18] > 100 µM | [13] > 100 µM | [14] > 100 µM | [15] 64.3 µM | [20] 64.4 µM | [16] > 100 µM

COC1(OC)CC2C=C(S(=O)(=O)c3ccccc3)C1N(Cc1ccccc1)C2=O (stereo not drawn)
inactive: [1] 33 µM | [2] 24.3 µM | [3] 13.4 µM | [4] 97.7 µM | [5] 28.3 µM | [6] 28.1 µM | [7] 35 µM | [8] 16.1 µM | [9] 32.4 µM | [10] 29.9 µM | [11] 16.4 µM | [12] 17.9 µM | [18] > 100 µM | [13] 31 µM | [14] 23 µM | [15] 22.6 µM | [16] 35.5 µM
